From patent publication US20190070268A1, “ABUSE-DETERRENT PHARMACEUTICAL COMPOSITIONS” (priority 2016, published 2019)

Legend:
[1] = system: laccase from Myceliophthora thermophila (MtL); test: Polymerization of morphine with laccase from Myceliophthora thermophila (high concentrations); type: biochemical; details: MTL 10 U to 100 U, 50 mM sodium phosphate buffer pH 7
Procedure: The reactions were carried out in 50 mM sodium phosphate buffer pH 7.

[2] = system: laccase; test: Thin layer chromatography of enzymatic conversion; type: biochemical; details: samples at 2, 10, 30, 60, 120 minutes
[3] = system: laccase from Trametes villosa (TvL); test: Oxygen measurement of laccase catalysed oxidation of opioids (TvL); type: biochemical; details: 10 U/ml TvL, 2 mg/ml substrate, distilled water; for oxygen concentration in solution upon laccase oxidation: room temperature
Description: (§1) Laccases use oxygen as electron acceptor, consequently the oxygen concentration decreases upon substrate oxidation.

[4] = system: laccase from Myceliophthora thermophila (MtL); test: Oxygen measurement of laccase catalysed oxidation of opioids (MtL); type: biochemical; details: 10 U/ml MtL, 2 mg/ml substrate, distilled water, room temperature
Description: as §1

[5] = molecular target: T1, Thermobifida cellulosilytica cutinase 1 (THC) (Thermobifida cellulosilytica, UniProt E9LVH8); type: biochemical
T1 construct: made in house
T1 sequence (E9LVH8 1-262): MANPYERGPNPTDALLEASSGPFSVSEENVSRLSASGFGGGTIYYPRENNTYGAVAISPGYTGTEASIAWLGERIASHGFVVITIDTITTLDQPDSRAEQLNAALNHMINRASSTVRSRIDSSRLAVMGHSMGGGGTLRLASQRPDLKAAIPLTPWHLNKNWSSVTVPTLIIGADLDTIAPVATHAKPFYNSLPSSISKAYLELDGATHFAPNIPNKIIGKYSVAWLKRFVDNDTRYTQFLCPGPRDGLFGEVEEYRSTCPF

[6] = system: Humicola insolens cutinase (HiC); type: biochemical
[7] = system: laccase mediator system; test: Laccase mediator system and oxycodone, oxygen concentration measurement; type: biochemical; details: 10 units laccase/ml, 1000 mg/L oxycodone
Procedure: (§2) During the reaction oxygen acts as electron acceptor and is reduced to water by laccases while the mediators are oxidized. The concentration of oxygen was measured as described above. Oxygen is consumed until the mediator is fully oxidized. […] The second step of the reaction is initiated by addition of the target substrate, which is consequently oxidized by the mediators.
(§3) In the present experiments the final reaction mixtures contained 0.2 to 6 mM mediator, 1-10 units of laccase per ml and 100-3000 mg L^−1 opioid.
The different mediators were used at concentrations of 2 mM with 10 units laccase ml^−1 and 1000 mgL^−1 oxycodone.

[8] = system: laccase mediator system; test: Laccase mediator system and oxycodone, HPLC-MS/TOF; type: biochemical
Procedure: The concentrations were determined with a liquid chromatography-electrospray ionization-time of flight (HPLC-ESI-TOF) mass spectrometer from Agilent (A1260 series, Agilent US). The substances contained in the samples were separated by a Zorbax Hilic Plus, 2.1×100 mm, 3.5 μm (Agilent, US) column. The gradient was set to 100% mobile phase A (65 mM ammonium formiate pH 3.2) with a flow rate of 0.4 mL min^−1 at 40° C. and changed to 100% mobile phase B (acetonitrile) in 15 minutes with an injection volume of 1 μL. The spectra were acquired over the m/z range from 100 to 3000 at a scan rate of two spectra per second. The standard curve for each opioid was performed with corresponding standards ranging from 0.001 to 50 mg L^−1.
In addition to the reactions shown in FIG. 17, the mediator vanillin was used at a higher concentration (6 mM). The results can be seen in FIG. 18 and FIG. 19. […] One of oxycodone's main degradation products, oxymorphone, was found in all samples. Oxymorphone is an impurity of oxycodone and is therefore present even in the controls where no laccase or mediator were used.

[9] = molecular target: T2, pepsin (Sus scrofa, UniProt P00791); test: Pepsin digestion assay in simulated gastric fluid with SDS-PAGE; type: in vitro ADME; details: SGF pH 1.2 with pepsin, 37° C.
T2 construct: purchased Sigma-Aldrich (US) P7000
Procedure: SGF contains 0.084 M HCl, 0.035 M NaCl, 4000 U of pepsin per reaction mixture and has a pH level of 1.2 according to the United States Pharmacopeia (1995). A ratio of 10000 Units of pepsin activity to 1 mg of test protein was used throughout the assay, which is based on an evaluation of the average activity of pepsin recommended in the United States Pharmacopeia (24th edition, 2000) with some modifications. Pepsin (ref. #P7000) was purchased from Sigma-Aldrich (US). All proteins that were used were dissolved in 50 mM Tris-HCl (pH 9.5) at a concentration of 5 mg mL^−1. The reaction mixture contained 1.52 mL of SGF preheated to 37° C. before the addition of 0.08 mL of protein solution (Thomas et al., 2004). The mixture was placed into a thermomixer at 37° C. and was shaken at 400 rpm. For denaturating SDS-polyacrylamide gel electrophoresis (SDS-PAGE) analysis samples of 160 μl were removed at 0 minutes, 0.5 minutes, and 15 minutes after initiation.
SDS-PAGE was performed to analyze and visually inspect stained protein bands whether the protein band is still intact or fragmented after the digestion assay. […]
Each 160 μl of the digestion samples was quenched by adding 56 μl of 200 mM NaHCO3 as neutralization step and 56 μl 4× Laemmli (Laemmli 1970) buffer for electrophoresis. Samples were immediately heated up to 99° C. for 10 minutes and analyzed directly or stored at −20° C. […]

[10] = system: laccase mediator system; test: Laccase mediator system and methadone, oxygen measurement; type: biochemical; details: mediator ABTS (best effect)
Procedure: as §2, §3
For methadone, oxygen measurements were done, but with an extended palette of mediators: In addition to the aforementioned mediators, syringic acid, TEMPO, syringol and ABTS were tested.

T2 sequence (P00791 60-385): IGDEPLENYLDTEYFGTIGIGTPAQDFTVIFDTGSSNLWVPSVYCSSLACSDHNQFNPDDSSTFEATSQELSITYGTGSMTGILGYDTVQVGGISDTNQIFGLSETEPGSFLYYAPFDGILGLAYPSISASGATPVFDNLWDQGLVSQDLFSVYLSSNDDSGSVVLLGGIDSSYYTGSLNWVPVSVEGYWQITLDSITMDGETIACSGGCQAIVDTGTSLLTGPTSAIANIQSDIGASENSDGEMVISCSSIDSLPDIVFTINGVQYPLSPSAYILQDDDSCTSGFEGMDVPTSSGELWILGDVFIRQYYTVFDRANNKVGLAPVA

## CN1CC[C@]23c4c5ccc(O)c4O[C@H]2[C@@H](O)C=C[C@H]3[C@H]1C5 [morphine]
[1]
  faster degradation of morphine with 10 times more laccase: ~10 times
[2]
  time at which new dot(s) appear on TLC (new product): 120 s

## CC[C@@H](c1cccc(O)c1)[C@@H](C)CN(C)C [tapentadol]
[2]
  time at which new dot(s) appear on TLC (new product): 120 s
  time at which the reference dot disappears on TLC (all converted): 120 min
[3]
  oxygen level to which the curve drops: ~0%
  oxygen concentration in solution upon laccase oxidation: converts tapentadol better
[4]
  oxygen concentration in solution upon laccase oxidation: much slower

## CC(=O)Oc1ccc2c3c1O[C@H]1[C@@H](OC(C)=O)C=C[C@H]4[C@@H](C2)N(C)CC[C@@]341 [diacetylmorphine]
[5]
  DAM concentration: declines
  morphine concentration formed from DAM: increased
[5]; pH 7
  diacetylmorphine hydrolyzed (total acetate yield, HPLC/RI): more than 50%
[6]
  DAM concentration: declines
  morphine concentration formed from DAM: increased
[6]; pH 7
  diacetylmorphine hydrolyzed (total acetate yield, HPLC/RI): more than 50%

## COc1ccc2c3c1O[C@H]1C(=O)CC[C@@]4(O)[C@@H](C2)N(C)CC[C@]314 [oxycodone]
[7]; mediator ethylvanillin 2 mM
  oxygen concentration after addition of the opioid: drop in oxygen concentration
[7]; mediator gallic acid 2 mM
  oxygen concentration after addition of the opioid: no apparent effect
[7]; mediator syringic acid 2 mM
  oxygen concentration after addition of the opioid: drop in oxygen concentration
[7]; mediator vanillin 2 mM
  oxygen concentration after addition of the opioid: drop in oxygen concentration
[3]
  oxygen concentration in solution upon laccase oxidation: not capable of converting oxycodone
[4]
  oxygen concentration in solution upon laccase oxidation: not capable of converting oxycodone
[8]; laccase mediator system, mediators at 2 mM, vanillin also 6 mM
  oxycodone concentration (HPLC-MS/TOF): decrease in oxycodone concentration was confirmed
[8]; mediator gallic acid
  effect on oxycodone (MS-TOF analysis): no apparent effect
[8]; oxycodone in combination with the laccase mediator system
  peak area of oxymorphone (degradation product) by MS-TOF: increase in peak area of oxymorphone over time

## HRP: horse radish peroxidase
[9]
  proteolytic degradation (SDS-PAGE): very susceptible to proteolytic degradation

## CCC(=O)C(CC(C)N(C)C)(c1ccccc1)c1ccccc1 (stereo not drawn) [methadone]
[10]
  oxygen concentration after addition of the opioid: decline in oxygen concentration
